Measured values taken from patent US20050209278A1, “Piperidinyl- and piperazinyl-sulfonylmethyl hydroxamic acids and their use as protease inhibitors” (priority 2002, published 2005).
Several values for one entry are separate records, joined by “and”; a condition that tells them apart may be missing. Equal entries are not always repeated.

Assays:
MMP-13 = target: T1, MMP-13 (Homo sapiens, UniProt P45452); assay: In vitro MMP inhibition, Ki determination (fluorogenic substrate II); assay type: biochemical; settings: value outside parentheses; read-out: MMP-13 Ki
T1 construct: made in house; host or cells: baculovirus / insect cells
How it was run: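 Room-temperature, 1 h incubation of APMA-activated recombinant human MMP-13 with 4 μM quenched substrate II (cleaved at Gly-Leu) in pH 7.5 Tris/NaCl/CaCl2 buffer. Inhibition appears as a slowed rise in 330/420 nm fluorescence. Single low enzyme and substrate levels were used for Ki.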

MMP-2 = target: T2, MMP-2 (Homo sapiens, UniProt P08253); assay: as above; assay type: biochemical; settings: value outside parentheses; read-out: MMP-2 Ki
T2 construct: made in house; host or cells: MMP-2-transfected p2AHT2 cells
T2 sequence (P08253 110-660): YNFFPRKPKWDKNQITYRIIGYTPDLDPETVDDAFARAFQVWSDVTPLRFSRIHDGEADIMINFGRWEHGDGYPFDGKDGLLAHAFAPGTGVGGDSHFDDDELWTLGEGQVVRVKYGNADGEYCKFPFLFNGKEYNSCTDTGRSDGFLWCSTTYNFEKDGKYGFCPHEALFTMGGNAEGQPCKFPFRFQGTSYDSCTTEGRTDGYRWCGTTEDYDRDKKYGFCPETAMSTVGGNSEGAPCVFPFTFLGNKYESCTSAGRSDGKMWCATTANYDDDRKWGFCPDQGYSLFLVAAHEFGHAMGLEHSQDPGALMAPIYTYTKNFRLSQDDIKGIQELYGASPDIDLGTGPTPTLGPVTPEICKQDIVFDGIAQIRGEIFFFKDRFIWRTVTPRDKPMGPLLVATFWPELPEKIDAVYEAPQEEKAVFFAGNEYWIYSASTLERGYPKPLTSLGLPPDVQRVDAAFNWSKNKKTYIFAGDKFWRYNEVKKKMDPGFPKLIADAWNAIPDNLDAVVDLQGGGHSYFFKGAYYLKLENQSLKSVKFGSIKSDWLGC

| Ki (MMP-13) | Ki (MMP-2) | SMILES |
| --- | --- | --- |
| 0.408 nM | 0.333 nM | O=C(NO)C1(S(=O)(=O)N2CCN(c3ncc(-c4ccc5c(c4)OCO5)s3)CC2)CCOCC1 [Example 362] |
| 0.076 nM | 0.056 nM | O=C(NO)C1(S(=O)(=O)N2CCN(c3ncc(-c4ccc([N+](=O)[O-])cc4)s3)CC2)CCOCC1 [Example 363] |
| 0.106 nM | 0.187 nM | O=C(NO)C1(S(=O)(=O)N2CCN(c3ncc(-c4ccc(OC(F)(F)F)cc4)s3)CC2)CCOCC1 [Example 364] |
| 101 nM | 201 nM | O=C(NO)C1(S(=O)(=O)N2CCN(c3ncc(-c4cccc(-c5ccccc5)c4)s3)CC2)CCOCC1 [Example 365] |
| 0.182 nM | 0.264 nM | CC(C)c1ccc(-c2cnc(N3CCN(S(=O)(=O)C4(C(=O)NO)CCOCC4)CC3)s2)cc1 [Example 366] |
| 0.835 nM | 0.978 nM | O=C(NO)C1(S(=O)(=O)N2CCC(c3ccc(CCC(F)(F)F)cn3)CC2)CCOCC1 [Example 367] |
| 0.329 nM | 0.225 nM | O=C(NO)C1(S(=O)(=O)N2CCN(c3ncc(-c4ccc(O)cc4)s3)CC2)CCOCC1 [Example 368] |
| 1.35 nM | 0.879 nM | O=C(NO)C1(S(=O)(=O)N2CCN(c3ncc(-c4ccc(Cl)c(Cl)c4)s3)CC2)CCOCC1 [Example 369] |
| 4.16 nM | 1.34 nM | Cc1cccc(-c2cnc(N3CCN(S(=O)(=O)C4(C(=O)NO)CCOCC4)CC3)s2)c1 [Example 370] |
| 1.35 nM | 4.14 nM | COc1ccc(-c2cnc(N3CCN(S(=O)(=O)C4(C(=O)NO)CCOCC4)CC3)s2)cc1OC [Example 371] |
| 0.485 nM and 0.654 nM | 0.451 nM and 0.479 nM | O=C(NO)C1(S(=O)(=O)N2CCN(c3ccc(-c4ccccc4)cn3)CC2)CCOCC1 [Example 372] |
| 3.37 nM | 6.12 nM | O=C(NO)C1(S(=O)(=O)N2CCC(COCc3ccccc3)CC2)CCOCC1 [Example 373] |
| 5.72 nM | 18.6 nM | CCC=C1CCN(S(=O)(=O)C2(C(=O)NO)CCOCC2)CC1 [Example 374] |
| 509 nM | 44.1 nM | O=C(NO)C1(S(=O)(=O)N2CCC(COCC(F)(F)C(F)F)CC2)CCOCC1 [Example 375] |
| 31.2 nM | 27.1 nM | O=C(NO)C1(S(=O)(=O)N2CCC(COCC(F)(F)C(F)(F)F)CC2)CCOCC1 [Example 376] |
| 0.167 nM | 0.14 nM | CCCCc1ccc(-c2cnc(N3CCN(S(=O)(=O)C4(C(=O)NO)CCOCC4)CC3)s2)cc1 [Example 379] |

| Ki (MMP-13) | Ki (MMP-2) | SMILES |
| --- | --- | --- |
| 0.651 nM | 1.39 nM | CCCCCc1ccc(-c2cnc(N3CCN(S(=O)(=O)C4(C(=O)NO)CCOCC4)CC3)s2)cc1 [Example 380] |
| 0.074 nM | 0.209 nM | CCc1ccc(-c2cnc(N3CCN(S(=O)(=O)C4(C(=O)NO)CCOCC4)CC3)s2)cc1 [Example 381] |
| 0.647 nM | 0.68 nM | O=C(NO)C1(S(=O)(=O)N2CCN(c3ncc(-c4cccnc4)s3)CC2)CCOCC1 [Example 382] |
| 104 nM | 1230 nM | NC(=O)c1ccccc1-c1cnc(N2CCN(S(=O)(=O)C3(C(=O)NO)CCOCC3)CC2)s1 [Example 383] |
| 0.272 nM | 0.185 nM | N#Cc1cccc(-c2cnc(N3CCN(S(=O)(=O)C4(C(=O)NO)CCOCC4)CC3)s2)c1 [Example 384] |
| 0.378 nM | 0.573 nM | O=C(NO)C1(S(=O)(=O)N2CCC(c3ccc(OCC(F)(F)C(F)F)cc3)CC2)CCN(CCN2CCOCC2)CC1 [Example 385] |
| 2.29 nM | 4.88 nM | O=C(NO)C1(S(=O)(=O)N2CCN(c3ccc(CCCC(F)(F)F)cc3F)CC2)CCOCC1 [Example 386] |
| 31 nM | 6.71 nM | O=C(NO)C1(S(=O)(=O)N2CCN(c3ncc(-c4ccccn4)s3)CC2)CCOCC1 [Example 387] |
| 15.1 nM | 11.2 nM | CCCCc1ccc(C2CCN(S(=O)(=O)C3(C(=O)NO)CCNCC3)CC2)nc1 [Example 388] |
| 0.47 nM | 0.38 nM | O=C(NO)C1(S(=O)(=O)N2CCN(c3ccc(CCCC(F)(F)F)c(F)c3)CC2)CCOCC1 [Example 389] |
| 6.72 nM | 12.3 nM | O=C(NO)C1(S(=O)(=O)N2CCC(c3ccc(-c4cccnc4)cn3)CC2)CCOCC1 [Example 390] |
| 4.23 nM | 4.02 nM | O=C(NO)C1(S(=O)(=O)N2CCC(c3ccc(-c4ccccc4)cn3)CC2)CCOCC1 [Example 392] |
| 1.73 nM | 1.8 nM | O=C(NO)C1(S(=O)(=O)N2CCC(c3ccc(-c4cccs4)cn3)CC2)CCOCC1 [Example 394] |
| 0.89 nM | 7.17 nM | O=C(NO)C1(S(=O)(=O)N2CCC(c3ccc(-c4ccc(C(F)(F)F)cc4)cn3)CC2)CCOCC1 [Example 395] |
| 2.19 nM | 2.32 nM | CCCCc1ccc(C2CCN(S(=O)(=O)C3(C(=O)NO)CCN(CC)CC3)CC2)nc1 [Example 396] |

| SMILES | Ki (MMP-13) | Ki (MMP-2) |
| --- | --- | --- |
| O=C(NO)C1(S(=O)(=O)N2CCC(COCC(F)(F)C(F)(F)C(F)(F)F)CC2)CCOCC1 [Example 377] | 87.5 nM | 37.5 nM |
| O=C(NO)C1(S(=O)(=O)N2CCC(COCC(F)(F)C(F)(F)C(F)(F)C(F)F)CC2)CCOCC1 [Example 378] | 48.4 nM | 24.8 nM |
